According to publication PMC3412150 (Circulation research, 2012):

Target: Nav1.8 (SCN10A) (Homo sapiens, UniProt Q9Y5Y9)
Assay: whole-cell voltage clamp, transfected ND7/[…] cells
Type: cell-based

Nav1.8 (SCN10A), sequence (Q9Y5Y9 whole entry): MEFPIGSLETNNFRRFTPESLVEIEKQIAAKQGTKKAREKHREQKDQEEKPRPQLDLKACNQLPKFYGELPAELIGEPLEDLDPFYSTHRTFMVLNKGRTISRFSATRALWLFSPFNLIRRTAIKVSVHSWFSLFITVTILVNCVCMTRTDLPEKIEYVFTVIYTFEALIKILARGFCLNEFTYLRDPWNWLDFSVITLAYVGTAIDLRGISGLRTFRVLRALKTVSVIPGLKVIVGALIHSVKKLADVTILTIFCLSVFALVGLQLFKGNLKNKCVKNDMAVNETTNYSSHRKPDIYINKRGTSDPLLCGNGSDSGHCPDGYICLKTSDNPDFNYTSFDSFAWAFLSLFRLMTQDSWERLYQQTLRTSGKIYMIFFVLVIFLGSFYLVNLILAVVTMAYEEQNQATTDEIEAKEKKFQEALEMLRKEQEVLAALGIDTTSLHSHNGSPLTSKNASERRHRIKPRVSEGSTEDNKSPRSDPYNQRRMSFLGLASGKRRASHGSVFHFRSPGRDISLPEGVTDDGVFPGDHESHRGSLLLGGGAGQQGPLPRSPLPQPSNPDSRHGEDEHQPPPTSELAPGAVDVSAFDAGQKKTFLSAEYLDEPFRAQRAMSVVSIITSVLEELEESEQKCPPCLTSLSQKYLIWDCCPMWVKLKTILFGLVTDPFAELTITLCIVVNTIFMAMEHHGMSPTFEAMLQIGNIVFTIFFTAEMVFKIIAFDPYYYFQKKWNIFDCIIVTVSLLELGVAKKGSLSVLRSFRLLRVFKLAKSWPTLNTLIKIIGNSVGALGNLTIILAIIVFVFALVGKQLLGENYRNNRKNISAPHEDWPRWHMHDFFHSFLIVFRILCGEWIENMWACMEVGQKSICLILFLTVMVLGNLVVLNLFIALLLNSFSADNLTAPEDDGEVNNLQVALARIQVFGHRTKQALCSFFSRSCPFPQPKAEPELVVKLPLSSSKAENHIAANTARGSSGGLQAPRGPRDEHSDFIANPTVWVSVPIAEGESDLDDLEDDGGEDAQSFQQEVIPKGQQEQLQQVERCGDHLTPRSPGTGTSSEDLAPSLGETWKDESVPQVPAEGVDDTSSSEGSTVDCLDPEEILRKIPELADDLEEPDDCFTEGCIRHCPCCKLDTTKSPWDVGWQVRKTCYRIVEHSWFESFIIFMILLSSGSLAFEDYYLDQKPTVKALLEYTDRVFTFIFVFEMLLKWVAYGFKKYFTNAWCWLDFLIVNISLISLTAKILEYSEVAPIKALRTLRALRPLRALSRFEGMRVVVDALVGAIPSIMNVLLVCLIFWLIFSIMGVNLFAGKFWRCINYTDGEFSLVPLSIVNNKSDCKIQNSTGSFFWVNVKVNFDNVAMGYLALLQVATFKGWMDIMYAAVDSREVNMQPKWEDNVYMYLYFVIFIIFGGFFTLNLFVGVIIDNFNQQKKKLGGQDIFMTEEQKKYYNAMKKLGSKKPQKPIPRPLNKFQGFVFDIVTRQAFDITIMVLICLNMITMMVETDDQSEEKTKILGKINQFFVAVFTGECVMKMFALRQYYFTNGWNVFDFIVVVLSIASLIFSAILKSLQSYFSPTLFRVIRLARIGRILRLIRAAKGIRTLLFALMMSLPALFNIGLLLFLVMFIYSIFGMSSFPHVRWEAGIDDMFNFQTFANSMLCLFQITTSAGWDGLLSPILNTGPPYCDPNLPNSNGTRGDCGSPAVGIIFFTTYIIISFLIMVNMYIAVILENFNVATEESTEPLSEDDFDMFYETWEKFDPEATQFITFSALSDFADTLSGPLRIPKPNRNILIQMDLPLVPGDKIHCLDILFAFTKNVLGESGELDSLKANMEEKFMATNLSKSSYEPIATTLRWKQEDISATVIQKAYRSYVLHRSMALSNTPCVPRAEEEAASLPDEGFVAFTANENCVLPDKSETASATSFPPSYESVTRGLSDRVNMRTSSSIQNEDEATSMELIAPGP

COc1cc(NC(=O)c2ccc(-c3ccc(Cl)cc3)o2)cc(OC)c1 [A-803467]
IC50: ~10 nM
